“Also recorded” adds a separate entry of the source.
Key:
Type in all cases: cell-based, human
LOX-1 protein expression = test: ox-LDL-induced LOX-1 protein expression in HUVECs (Western blotting); conditions: 200 nM, 5 μg/ml ox-LDL
Description: FIG. 3A, FIG. 3B, FIG. 3C and FIG. 3D depict the inhibitory effect of the lead compounds on Dil-ox-LDL uptake by HUVECs and CHO cells (measured by flow cytometry) and the effect of the lead compounds on ox-LDL-induced LOX-1 mRNA and protein expression. (FIG. 3A) (Upper Panel) Flow cytometry measurements using HUVECs in the presence of the five lead compounds (Mol-1-Mol-5), each a at 200 nM concentration. (Lower Panel) The percentage of internalized ox-LDL. Graphs show data as mean (±SD); n=4. *P<0.01 or <0.05 vs. control. (FIG. 3B) IC50 value for Mol-5. IC50 value (in nM) is based on inhibition of Dil-ox-LDL uptake in CHO cells overexpressing human LOX-1. Graphs show data as mean (±SD); n=5. *P<0.01 or <0.05 vs. control. (FIG. 3C) Western blotting assay showing LOX-1 protein expression in HUVECs following incubation with 200 nM Mol-1 to Mol-5 for 30 min, and subsequently exposure to 5 μg/mL ox-LDL for 6 hours. (FIG. 3D) The variation of LOX-1 mRNA expression levels at different concentrations of the compounds following exposure of HUVECs to 5 μg/mL ox-LDL. The concentrations are indicated on the X-axis and the LOX-1 mRNA levels are shown on the Y-axis. The plots for all the five molecules are shown in separate colors. Graphs show data as mean (±SD); n=3. *P<0.01 vs. control; #P<0.01 vs. ox-LDL group.
Internalization of ox-LDL via binding to LOX-1 activates endothelial cells and upregulates the expression of LOX-1^2. In this study, it was tested if the lead molecules would inhibit LOX-1 expression. Accordingly, LOX-1 protein expression in HUVECs was measured by Western blotting.
HUVECs were plated into 6-well cell culture plates. […] The protein concentrations were measured by Bradford protein assay. […] The protein bands were scanned by a Gel Doc™ XR System (Bio-Rad, Hercules, Calif.), and the density of each band was quantified by Image J software. The relative expression of target proteins was calculated with comparison to […] bands.

ERK1/2 = test: ox-LDL-induced activation (phosphorylation) of ERK1/2 in HUVECs (Western blotting); conditions: 200 nM
Description: (§1) FIG. 4A, FIG. 4B, FIG. 4C, FIG. 4D and FIG. 4E depict the effect of lead molecules on ox-LDL-induced the activation of MAPKs in HUVECs, VCAM-1 expression and monocyte adhesion onto HUVECs. […] (FIG. 4B) Western blot analyses showing phospho-p38MAPK expression in HUVECs following exposure to 200 nM of each compound for 30 min, and subsequently exposed to 5 μg/mL ox-LDL for 6 hours. […] (FIG. 4D) The variation of VCAM-1 mRNA expression levels with different concentrations of the led compounds. The concentrations are indicated on the X-axis and the VCAM-1 mRNA levels are shown on the Y-axis. The plots for all five molecules are shown in separate colors. […] Graphs show data as mean (±SD); n=3 (for Western blot and PCR assays) or n=20 (for monocyte adhesion assay). *P<0.01 vs. control; #P<0.01 or <0.05 vs. ox-LDL group.
(§2) To assess downstream effects of each candidate molecule, ox-LDL induced expression and activation of ERK1/2 and P38MAPK was measured in HUVECs in the absence or presence of each candidate molecule (200 nM). […] Importantly, unphosphorylated MAPKs were not affected by any of the candidate molecules.
(§3) HUVECs were plated into 6-well cell culture plates. When the cells were reached 70% confluence, they were treated with 200 nM of each of 5 molecules for 30 min, and subsequently exposed to […] ox-LDL for 6 h. After washing with PBS for 2 times, the cells were treated with Cell Lysis Buffer (Promega, Madison, Wis.) with protease Inhibitor and phosphatase Inhibitor (Sigma-Aldrich, St. Louis, Mo.). The protein concentrations were measured by Bradford protein assay. Proteins (20 tg) were separated by electrophoresis in 12% precast SDS-PAGE gels, and were transferred onto Nitrocellulose Blotting Membrane (GE Healthcare Life Science, Piscataway, N.J.). The membranes were then incubated with LOX-1, VCAM-1 (Abcam, Cambridge, Mass.), ERK1/2, phospho-ERK1/2, phospho-p38MAPK (Cell Signaling Technology, Inc., Danvers, Mass.), or […] (Santa Cruz Biotechnology, Inc., Dallas, Tex.) primary antibodies (1:1000˜1:2000) in blocking solution at 4° C. overnight. Following wash with TBS-1 for 3 times, the blots were incubated with HRP-conjugated secondary antibodies (1:10000) in blocking solution for 1 hour at room temperature. After 3 washes with PBS, the blots were treated with Western Blotting Luminol Reagents (Santa Cruz Biotechnology) for 3 min and then exposed to Blue Basic Autorad Film (GeneMate, Kaysville, Utah). The protein bands were scanned by a Gel Doc™ XR System (Bio-Rad, Hercules, Calif.), and the density of each band was quantified by Image J software. The relative expression of target proteins was calculated with comparison to […] bands.

P38 MAPK = test: ox-LDL-induced activation (phosphorylation) of P38 MAPK in HUVECs (Western blotting); conditions: 200 nM
Description: as §1, §2, §3

Compound | effect on ox-LDL-induced LOX-1 protein expression (LOX-1 protein expression) | effect on ox-LDL-induced activation/phosphorylation of ERK1/2 (in words) (ERK1/2) | effect on ox-LDL-induced activation of P38 MAPK (in words) (P38 MAPK) | reduction of the level of phospho-P38 MAPK (P38 MAPK) | effect on ox-LDL-induced activation/phosphorylation of ERK1/2 (in words) (ERK1/2; listed as MoL-4)
CCOCCCNC(=O)CCN1C(=O)COc2ccccc21 [Mol-1] | significantly reduced | significantly inhibited; also recorded: moderately | significantly inhibited | around 60% | –
CC(C)(C)C(=O)NCCc1nc2ccccc2n1Cc1ccccc1F [Mol-2] | – | no significant effect | no significant effect | – | –
CCCn1c(CCNC(=O)CCCO)nc2ccccc21 [Mol-4] | significantly reduced | potently reduced | significantly inhibited | around 60% | significantly inhibited
Cc1cc(C)n(CC(O)COc2ccccc2)n1 (stereo not drawn) [Mol-5, 1-(3,5-dimethyl-1H-pyrazol-1-yl)-3-phenoxypropan-2-ol] | significantly reduced | significantly inhibited; also recorded: maximum inhibition; also recorded: potently reduced | significantly inhibited; also recorded: maximum inhibition | 75% | –

— patent US11465972B2, “Inhibitors of oxidized low-density lipoprotein receptor 1 and methods of use thereof” (United States Government as represented by the Department …, priority 2015, dated 2022)
